Assays:
[1] = in vivo; parameters: species or system SD rats; conditions: SD, rat, po
Procedure: (§1) According to the general toxicology study in accordance with the NMPA “Good Laboratory Practice for Non-clinical Laboratory Studies” and FDA GLP specification (21CFR Part 58), and in line with the requirements of International Conference on Harmonization of Technical Requirements for Registration of Pharmaceuticals for Human Use (ICH) and the NMPA relevant guidelines, the toxicology study on Compound (I) was carried out to provide safety data support for the use of Compound (I) in clinical patients. The administration mode and the experimental results were as follows: […]

[2] = Toxicity test of oral gavage administration in Beagle dogs, 28 consecutive days; format: in vivo; conditions: for AUC: NOAEL 3 mg/kg/time BID, 28-day test
Procedure: as §1

[3] = Phase I clinical trial, single ascending dose; format: in vivo; conditions: human; single ascending dose up to 240 mg
Procedure: Compound (I) had no effect on the central nervous system, respiratory system and cardiovascular system of animals, and was expected to have no side effects on the central nervous system, respiratory system and cardiovascular system of human. The NOAEL of single administration to rats was 2000 mg/kg, the MTD of administration to Beagle dogs was 500 mg/kg/time (1000 mg/kg/day), the NOAEL of repeated administration to rats for 28 days was 10 mg/kg/time (20 mg/kg/day), and the NOAEL of repeated administration to Beagle dogs for 28 days was 3 mg/kg/time (6 mg/kg/ day). […] The effective dose for rats was 3 mg/kg/time bid. According to the exposure, Compound (I) had 1-fold safety window in Beagles and 8-13-fold safety window in SD rats. According to the dose calculation, Compound (I) had 3-fold safety windows in both Beagle dogs and SD rats. The proposed and undetermined initial ascending dose of Compound (I) in the first-in-human trial was 15 mg. […] Therefore, according to the pre-clinical toxicological study data of Compound (I), the single ascending doses of phase I clinical trial to be carried out were 15 mg, 45 mg, 60 mg, 90 mg, 135 mg, 180 mg, 240 mg, 300 mg and 360 mg.

For `NC(=O)c1cnc(Nc2ccc3c(c2)OC[C@H]2CN(S(=O)(=O)C4CC4)CCN32)nc1NC1CC1` [Compound (I), (R)-4-(cyclopropylamino)-2-((3-(cyclopropylsulfonyl)-1,2,3,4,4a,5-hexahydrobenzo[b]pyrazolo[1,2-d][1,4]oxazin-8-yl)amino)pyrimidine-5-arboxamide], the NOAEL [1] was 2000 mg/kg, the “Safety window, dose method” value ([2]; Beagle dogs, NOAEL 28-day test vs rat effective dose) was 3 fold and the “Safety window, exposure method” value ([2]; Beagle dogs, NOAEL 28-day test vs rat effective dose exposure) was 1 fold. The “Safety window of human equivalent dose of NOAEL relative to the human initial dose” value ([2]; beagle, dog, in vivo, 28 days) was 14 fold, the NOAEL at 28 days ([2]; beagle, dog, in vivo, po) was 6 mg/kg/day and the “NOAEL of repeated administration for 28 days” value ([2]; dog, in vivo, po) was 3 mg/kg/time. The AUC ([2]; female, beagle, dog, in vivo, po, dogs ♀) was 3930 ng·h/mL, the AUC ([2]; male, beagle, dog, in vivo, po, dogs ♂) was 3300 ng·h/mL and the “Human equivalent dose (based on 60 kg body weight)” value ([2]; of NOAEL for 28-day test of dogs) was 210 mg. For the same compound, the “Safety in phase I clinical trial” value [3] was “no safety issues above Level 3”.
